In publication PMC6429263, “Evolution and Antibacterial Evaluation of 8-Hydroxy-cycloberberine Derivatives as a Novel Family of Antibacterial Agents Against MRSA” (Molecules, 2019):

Assays:
S.h ATCC 35982 = test: MIC, agar dilution, S.h ATCC 35982; format: cell-based; details: Staphylococcus hominis, ATCC35982; S. hominis ATCC 35982; read-out: MIC
VISA ATCC 700699 = test: MIC, agar dilution, VISA ATCC 700699; format: cell-based; details: Staphylococcus aureus; VISA ATCC 700699; read-out: MIC
VISA ATCC 700698 = test: MIC, agar dilution, VISA ATCC 700698; format: cell-based; details: Staphylococcus aureus; VISA ATCC 700698; read-out: MIC
MRSA ATCC 43300 = test: MIC, agar dilution, MRSA ATCC 43300; format: cell-based; details: Staphylococcus aureus; MRSA ATCC 43300; read-out: MIC
[1] = test system: drug-susceptible strains: MSSA, MSSE, S. saprophyticus, S. hominis; test: MIC across the panel of drug-susceptible Gram-positive strains; format: cell-based; details: 18 h; drug-susceptible Gram-positive strains of Table 1; read-out: MICs (range over strains)
From the text: SAR study for antibacterial activity against drug-susceptible Gram-positive bacteria was initially carried out, taking Lev and compound 1 as reference drugs. […] Bacteria strains used in this study were from the ATCC collection and clinical isolates in Chinese hospitals. The influence of the methylenedioxy ring was explored first, and compounds 6 and 10 were created and tested.

MRSA 13-23 = test: MIC, agar dilution, MRSA 13-23; format: cell-based; details: Staphylococcus aureus; MRSA 13-23; read-out: MIC
MRSA 16-34 = test: MIC, agar dilution, MRSA 16-34; format: cell-based; details: Staphylococcus aureus; MRSA 16-34; read-out: MIC
MRSE 13-3 = test: MIC, agar dilution, MRSE 13-3; format: cell-based, S. epidermidis; details: Staphylococcus epidermidis; MRSE 13-3; read-out: MIC
MRSA 13-18 = test: MIC, agar dilution, MRSA 13-18; format: cell-based; details: Staphylococcus aureus; MRSA 13-18; read-out: MIC
MRSA ATCC-B AA-1708 = test: MIC, agar dilution, MRSA ATCC-BAA-1708 (mupA positive); format: cell-based; details: Staphylococcus aureus; MRSA ATCC-BAA-1708, mupA positive (mupirocin resistance); read-out: MIC
MRSA ATCC -BAA-976 = test: MIC, agar dilution, MRSA ATCC-BAA-976 (clindamycin-resistant); format: cell-based; details: Staphylococcus aureus; MRSA ATCC-BAA-976, clindamycin-resistant S. aureus; read-out: MIC
MSSA 16-1 = test: MIC, agar dilution, MSSA 16-1 (clinical isolate); format: cell-based, S. aureus; details: Staphylococcus aureus; MSSA 16-1, isolated from patients in China; read-out: MIC
MSSA ATCC 29213 = test: MIC, agar dilution, MSSA ATCC 29213; format: cell-based, S. aureus; details: Staphylococcus aureus; MSSA ATCC 29213; read-out: MIC
MSSE ATCC 12228 = test: MIC, agar dilution, MSSE ATCC 12228; format: cell-based, S. epidermidis; details: Staphylococcus epidermidis, ATCC12228; MSSE ATCC 12228; read-out: MIC
MSSE 16-5 = test: MIC, agar dilution, MSSE 16-5 (clinical isolate); format: cell-based, S. epidermidis; details: Staphylococcus epidermidis; MSSE 16-5, isolated from patients in China; read-out: MIC
S.s ATCC 15305 = test: MIC, agar dilution, S.s ATCC 15305; format: cell-based; details: Staphylococcus saprophyticus, ATCC15305; S. saprophyticus ATCC 15305; read-out: MIC
MSSA 15 = test: MIC, agar dilution, MSSA 15 (clinical isolate); format: cell-based, S. aureus; details: Staphylococcus aureus; MSSA 15, isolated from patients in China; read-out: MIC
MRSE 16-5 = test: MIC, agar dilution, MRSE 16-5; format: cell-based, S. epidermidis; details: Staphylococcus epidermidis; MRSE 16-5; read-out: MIC
MSSA/MRSA tested strains = test system: MSSA/MRSA tested strains; design: method as in PMID 29795764, PMID 30145374; details: cited from earlier work

Compound | MIC (S.h ATCC 35982) [µg/mL] | MIC (VISA ATCC 700699) [µg/mL] | MIC (VISA ATCC 700698) [µg/mL] | MIC (MRSA ATCC 43300) [µg/mL] | MIC [1] [µg/mL] | MIC (MRSA 13-23) [µg/mL] | MIC (MRSA 16-34) [µg/mL] | MIC (MRSE 13-3) [µg/mL] | MIC (MRSA 13-18) [µg/mL] | MIC (MRSA ATCC-B AA-1708) [µg/mL] | MIC (MRSA ATCC -BAA-976) [µg/mL] | MIC (MSSA 16-1) [µg/mL] | MIC (MSSA ATCC 29213) [µg/mL] | MIC (MSSE ATCC 12228) [µg/mL] | MIC (MSSE 16-5) [µg/mL] | MIC (S.s ATCC 15305) [µg/mL] | MIC (MSSA 15) [µg/mL] | MIC (MRSE 16-5) [µg/mL] | bactericidal activity (MSSA/MRSA tested strains; MSSA/MRSA) | MICs (range over strains) (MSSA/MRSA tested strains; tested strains such as MRSA) [µg/mL]
COc1ccc2c(c[n+]3ccc4cc5c(c6c(Cc7ccccc7)cc2c3c46)OCO5)c1O [13a, 1,2-Methylenedioxy-8-hydroxy-9-methoxy-13-benzylcycloberberine chloride] | 8 | 8 | 8 | 16 | 8 to 16 | 16 | 8 | 8 | 16 | 8 | 16 | 8 | 8 | 16 | 8 | 8 | 16 | 16 | – | –
COc1ccc2c(c[n+]3ccc4cc5c(c6c(Cc7ccc(Cl)cc7)cc2c3c46)OCO5)c1O [13e, 1,2-Methylenedioxy-8-hydroxy-9-methoxy-13-p-chlorobenzylcycloberberine chloride] | 8 | 8 | 4 | 8 | 2 to 8 | 8 | 4 | 64 | 8 | 8 | 4 | 4 | 8 | 8 | 4 | 16 | 8 | 4 | – | –
COc1ccc2c(c[n+]3ccc4cc5c(c6c(Cc7cccc(C)c7)cc2c3c46)OCO5)c1O [13h, 1,2-Methylenedioxy-8-hydroxy-9-methoxy-13-m-methylbenzylcycloberberine chloride] | 8 | 4 | 4 | 8 | 2 to 16 | 8 | 4 | 4 | 8 | 4 | 8 | 4 | 4 | 4 | 2 | 16 | 4 | 4 | – | –
COc1ccc2c(c[n+]3ccc4cc5c(c6c(Cc7ccccc7[N+](=O)[O-])cc2c3c46)OCO5)c1O [13p, 1,2-Methylenedioxy-8-hydroxy-9-methoxy-13-o-nitrobenzylcycloberberine chloride] | 8 | 4 | 8 | 8 | 4 to 16 | 8 | 4 | 32 | 16 | 4 | 8 | 4 | 8 | 8 | 4 | 16 | 8 | 8 | – | –
COc1ccc2c(c[n+]3c4c2ccc2c5c(cc(c24)CC3)OCO5)c1OC [CBBR, cycloberberine] | > 64 | > 64 | > 64 | > 64 | – | > 64 | > 64 | > 64 | > 64 | > 64 | > 64 | > 64 | > 64 | > 64 | > 64 | > 64 | > 64 | > 64 | no bactericidal activity at all | > 64
